Results reported in patent US8293465B2, “Method for the detection of human immunodeficiency virus envelope (HIV) glycoprotein utilizing carbohydrate binding module (CBM) 20 or 21” (priority 2009, dated 2012).

B1: RoSBD: starch binding domain, CBM family 21, derived from Rhizopus oryzae glucoamylase, produced in E. coli (protein)
chain: ASIPSSASVQLDSYNYDGSTFSGKIYVKNIAYSKKVTVIYADGSDNWNNNGNTIAASYSAPISGSNYEYWTFSASINGIKEFYIKYEVSGKTYYDNNNSANYQVST

Columns and labels:
[1] = biological target: T1, RoSBD binding to HIV Ag & Ab positive panel (Rhizopus oryzae, UniProt P07683); test: Competition of HIV-RoSBD binding, ELISA on RoSBD coated plate; conditions: 10 mM competitor, FIG. 6A
T1 construct: made in house; host or cells: E. coli (pET23a)
Experimental: (§1) Ten millimolar maltoheptaose (G7 glycan) and β-cyclodextrin (βCD) (Sigma-Aldrich, St. Louis, Mo.) were dissolved in PBS plus 5% BSA and mixed with the same volume of HIV Ag & Ab positive panel at 37° C. for 1 hr. After adding the mixture to RoSBD coated plate (100 nM in 0.05 M Tris-Hcl, pH 8) or AnSBD coated plate (100 nM in 0.05 M sodium bicarbonate buffer, pH 9.5) at 37° C. for 1 hr, 100 μL HRP coupled HIV1 recombinant gp120 antigen conjugate (0.05 μg/mL) was used for detection.
(§2) HIV Ag & Ab positive panel was separately mixed with the same volume of 500 nM human IgG1 secondary antibody, 2G12 monoclonal antibody, and 250 nM HIV1 gp140 antigen at 37° C. for 1 hr. After adding the mixture to (a) RoSBD coated (100 nM in 0.05 M Tris-Hcl, pH 8) and (b) AnSBD coated plate (100 nM in 0.05 M sodium bicarbonate buffer, pH 9.5) individually at 37° C. for 1 hr, 100 μL HRP coupled HIV1 recombinant gp120 antigen conjugate (0.05 μg/mL) was used for detection.

[2] = biological target: T2, AnSBD binding to HIV Ag & Ab positive panel (Aspergillus niger, UniProt P69328); conditions: 10 mM competitor; AnSBD coated plate; FIG. 6B
T2 construct: made in house; host or cells: E. coli (pET15b, printed 'pET15Bb')
Experimental: as §1, §2

[3] = Glycan array screening of RoSBD (CFG Core H, version 3.1); type: binding; conditions: among 377 glycans; FIG. 1A
Experimental: RoSBD was produced in E. coli system using pET23a expression vector and purified using amylose resin as previously described. Glycan microarray analyses were conducted by the Consortium for Functional Glycomics, Core H facility. The array contained a total of 377 different natural and synthetic glycans and version 3.1 was used for the analyses reported here. Briefly, RoSBD was diluted to […] in sodium acetate binding buffer (50 mM sodium acetate pH 5.5, 1% BSA and 0.05% Tween-20). Seventy microliters was applied to the printed surface of the array, coverslipped, and incubated at room temperature in a humidified chamber away from light for 1 hr. After the incubation, the coverslip was removed and rinsed four times in TSM buffer [50 mM Tris-HCI (pH 7.5), 10 mM MgCl2, and 0.5 M sucrose] and four times in TSM buffer. Seventy microliters of Anti-RoSBD monoclonal antibody, diluted to 1:200 in PBS binding buffer, was applied to the printed surface of the microarray and incubated in a humidified chamber for 1 hr. Washes were performed as above. To detect binding, the secondary antibody incubation was performed with Alexa488-labeled goat anti-mouse IgG at […] in PBS buffer for one hour in a humidified chamber, followed by wash steps. The binding image was read in a Perkin-Elmer Microarray XL4000 scanner and analyzed using Imagene (V.6) image analysis software. […]

[4] = system: HIV Ag & Ab positive panel (possibly native HIV gp120 antigen glycoprotein); test: HIV-RoSBD binding analysis, sandwich ELISA on SBD coated plates
Experimental: At first 100 μL of 100 nM AnSBD/RoSBD were coated on individual well of a 96-well plate (Greiner-Bio One GmbH, Frickenhausen, Germany) in sodium bicarbonate buffer (pH 9.5)/Tris-HCl buffer (pH 8) via 16-hr incubation at 4° C. The plate was washed with PBST [10 mM Phosphate Buffered Saline (pH 7.0) plus 0.05% Tween-20], then 200 μL blocking buffer [0.01 M Phosphate Buffered Saline (pH 7.0) plus 5% BSA] was added to each well and incubated at 37° C. for 2 hr. The blocking buffer was removed and the plate was dried at 25° C. for 1 hr. […] To test the specificity of the SBD binding to HIV, HCV test sample and HCV recombinant antigen (Core+NS3+NS5)-HRP conjugate (0.33 μg/mL) were analyzed following the same protocol in parallel. Finally, the plates were developed by adding 100 μL 3,3′,5,5′-tetramethylbenzidibe (TMB) at 37° C. for […] The absorbance was measured at 450 nm in ELISA reader after the reaction was stopped by addition of 100 μL 2 N H2SO4 in each well. These absorbance values were compiled as a statistical value (Cut off value; COV) and described in terms of cut off index (COI) value. The COV was calculated as the OD value of negative control (Normal Human Serum) plus 0.1 (COV=NC+0.1). The COI value was calculated as the OD value of test sample divided by COV. […]

Row | Molecule | competitive inhibition rate [1] [%] | competitive inhibition rate [2] [%] | glycan recognition (interaction signal on glycan array) [3] | specificity of binding, HIV panel versus Anti-HCV mixed titer performance panel ([4]; Anti-HCV panel PHV205-24 in parallel, P<0.0001, FIG. 4B) | maximal COI value of binding ([4]; HIV Ag & Ab positive panel #9144532, COI > 1 is positive, FIG. 4A)
1 | OC[C@H]1O[C@@H]2O[C@H]3[C@H](O)[C@@H](O)[C@@H](O[C@H]4[C@H](O)[C@@H](O)[C@@H](O[C@H]5[C@H](O)[C@@H](O)[C@@H](O[C@H]6[C@H](O)[C@@H](O)[C@@H](O[C@H]7[C@H](O)[C@@H](O)[C@@H](O[C@H]8[C@H](O)[C@@H](O)[C@@H](O[C@H]1[C@H](O)[C@H]2O)O[C@@H]8CO)O[C@@H]7CO)O[C@@H]6CO)O[C@@H]5CO)O[C@@H]4CO)O[C@@H]3CO [β-cyclodextrin] | 23.1 | 14.3 |  |  | 
2 | maltoheptaose | 24.4 | 45.9 |  |  | 
3 | B1 |  |  | only Manα(1,2)Manα(1,2)Manα(1,2)Manα(1,3) (No. 187) showed evident interaction signal | specific | 2.298
